The text below walks through data of patent publication US12583866B2, “Pyrido[2,3-b][1,4]oxazines or tetrahydropyrido[2,3-b][1,4]oxazepines as IAP antagonists” (BEIGENE, LTD., priority 2020, dated 2026).

In assay [1] the target is T1, recombinant human cIAP1-BIR3 protein (Homo sapiens, UniProt Q13490).
T1 construct: recombinant human cIAP1-BIR3 protein; purchased Reaction biology APT-11-370
The assay can be described thus: Recombinant human c-IAP1-BIR3 biochemical assay (HTRF, peptide displacement). The settings on record: 1.2 nM cIAP1-BIR3, 3 nM AbuRPF-K(5-Fam)-NH2 peptide, read-out: Protein binding IC50 (nM) c-IAP1. In short, it runs like this: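 1.2 nM cIAP1-BIR3 preincubated 1 h at room temperature with compound (10 points, 4-fold, top 10 uM) in 20 mM HEPES pH 7.5, 50 mM NaCl, 1 mM DTT; 3 nM AbuRPF-K(5-Fam)-NH2 then added for 1 h, then anti-6His Tb cryptate for 1 h. 520/490 nm ratio; IC50 by four-parameter logistic fit.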
A general note: In TR-FRET formats the signal depends on donor and acceptor labels being close together.

Assay [2] has as its target T2, recombinant human cIAP2-BIR3 protein (Homo sapiens, UniProt Q13489).
T2 construct: recombinant human cIAP2-BIR3 protein; purchased Reaction biology APT-11-372
The assay can be described thus: Recombinant human c-IAP2-BIR3 biochemical assay (HTRF, peptide displacement). As to conditions: 3.7 nM cIAP2-BIR3, 3.7 nM AbuRPF-K(5-Fam)-NH2 peptide, read-out: Protein binding IC50 (nM) c-IAP2. In short, it runs like this: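 3.7 nM protein pre-incubated 1 h at room temperature with compounds (top 10 uM, 4-fold, 10 points) in 20 mM HEPES pH 7.5, 50 mM NaCl, 0.005% Tween-20, 1 mM DTT. Then 3.7 nM AbuRPF-K(5-Fam)-NH2 for 1 h, then anti-6His Tb cryptate 1 h. IC50 from 520/490 nm HTRF ratio, four-parameter logistic fit.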

For assay [3], the target named is T3, recombinant human XIAP-BIR3 protein (Homo sapiens, UniProt P98170).
T3 construct: recombinant human XIAP-BIR3 protein; purchased Reaction biology APT-11-374
T3 sequence (P98170 241-356 limits assumed): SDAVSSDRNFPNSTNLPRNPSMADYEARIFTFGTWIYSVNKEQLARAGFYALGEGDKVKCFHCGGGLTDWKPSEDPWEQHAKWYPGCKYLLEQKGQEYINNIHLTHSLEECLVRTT
The experiment in a line: Recombinant human XIAP-BIR3 biochemical assay (HTRF, peptide displacement). As to conditions: 3.7 nM XIAP-BIR3, 7.6 nM AbuRPF-K(5-Fam)-NH2 peptide, read-out: Protein binding IC50 (nM) XIAP. In short, it runs like this: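 3.7 nM His-tagged XIAP-BIR3 was preincubated 1 h RT with compound (top 10 µM, 4-fold, 10 points) in 20 mM HEPES pH 7.5, 50 mM NaCl, 0.005% Tween-20, 1 mM DTT. 7.6 nM AbuRPF-K(5-Fam)-NH2 peptide was then added, followed by anti-6His Tb cryptate, 1 h each. HTRF 520/490 nm ratio; four-parameter logistic IC50.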

T2 sequence (Q13489 238-349 limits assumed): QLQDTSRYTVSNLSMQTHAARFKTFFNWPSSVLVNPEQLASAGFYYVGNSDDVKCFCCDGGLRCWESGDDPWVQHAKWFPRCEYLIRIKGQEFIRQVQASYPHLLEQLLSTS
T1 sequence (Q13490 253-363 limits assumed): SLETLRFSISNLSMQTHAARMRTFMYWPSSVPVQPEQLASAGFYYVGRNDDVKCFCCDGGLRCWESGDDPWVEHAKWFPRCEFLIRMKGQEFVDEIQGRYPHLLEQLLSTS

By IC50 is commonly meant the concentration needed to halve the response being measured. On to `C[C@@H]1CN(CC(=O)N2c3cc(Cc4ccc(F)cc4)c(C(=O)NCC(F)(F)F)nc3OC[C@@H]2C)[C@@H](CN2[C@H](C)COC[C@H]2C)CN1` [Example 64], for which the IC50 turned out to be 0.25 nM in assay [1], 0.29 nM in assay [2] and 2.3 nM in assay [3].

Take `C[C@@H]1CN(CC(=O)N2c3cc(Cc4ccc(F)cc4)c(CO)nc3OC[C@@H]2C)[C@@H](CN2CCOC[C@H]2CO)CN1` [Compound 54, 1-((S)-7-(4-fluorobenzyl)-6-(hydroxymethyl)-2-methyl-2,3-dihydro-1H-pyrido[2,3-b][1,4]oxazin-1-yl)-2-((2R,5R)-2-(((R)-3-(hydroxymethyl)morpholino)methyl)-5-methylpiperazin-1-yl)ethan-1-one]: the half-inhibitory concentration (IC50) was determined as 1.7 nM in assay [1], 2.8 nM in assay [2] and 25 nM in assay [3].

`C[C@@H]1CN(CC(=O)N2c3cc(Cc4ccc(F)cc4)c(O)nc3OC[C@@H]2C)[C@@H](CN2[C@H](C)COC[C@H]2C)CN1` [Example 81]: the concentration for half-maximal inhibition (IC50) in assay [1] is 0.18 nM; in assay [2], 0.42 nM; in assay [3] it was 2.9 nM.

As for `C[C@@H]1CN(CC(=O)N2CCOc3ncc(Cc4ccc(F)cc4)cc32)[C@@H](CN2C[C@@H]3C[C@H]2CO3)CN1` [Compound 13, 2-((2R,5R)-2-(((1S,45)-2-oxa-5-azabicyclo[2.2.1]heptan-5-yl)methyl)-5-methylpiperazin-1-yl)-1-(7-(4-fluorobenzyl)-2,3-dihydro-1H-pyrido[2,3-b][1,4]oxazin-1-yl)ethan-1-one], the IC50 in assay [1] worked out at 1.02 nM; in assay [2], 1.5 nM; in assay [3], 24 nM.

In the case of `CC(C)OC[C@@H]1COCCN1C[C@H]1CN[C@H](C)CN1CC(=O)N1c2cc(Cc3ccc(F)cc3)c(C(N)=O)nc2OC[C@@H]1C` [Example 62, (S)-7-(4-fluorobenzyl)-1-(2-((2R,5R)-2-(((S)-3-(isopropoxymethyl)morpholino)methyl)-5-methylpiperazin-1-yl)acetyl)-2-methyl-2,3-dihydro-1H-pyrido[2,3-b][1,4]oxazine-6-carboxamide], the concentration for half-maximal inhibition (IC50) in assay [1] stood at 0.33 nM; in assay [2], 0.73 nM; in assay [3], 8.1 nM.

Regarding `C[C@@H]1CN(CC(=O)N2c3cc(Cc4ccc(F)cc4)cnc3OC[C@@H]2C)[C@@H](CN2[C@H](C)COC[C@H]2C)CN1` [Compound 22], the IC50 in assay [1] amounted to 0.13 nM; in assay [2], 0.21 nM; in assay [3] it was 3.97 nM.

In the case of `CC1CN(C(=O)CN2C[C@@H](C)NC[C@@H]2CN2CCOC[C@H]2C)c2cc(Cc3ccc(F)cc3)cnc2O1` (stereo partly drawn) [Compound 10, 1-(7-(4-fluorobenzyl)-3-methyl-2,3-dihydro-1H-pyrido[2,3-b][1,4]oxazin-1-yl)-2-((2R,5R)-5-methyl-2-(((R)-3-methylmorpholino)methyl)piperazin-1-yl)ethan-1-one], the IC50 is 14 nM in assay [1], 52 nM in assay [2] and 264 nM in assay [3].

On to `C[C@@H]1CN(CC(=O)N2c3cc(Cc4ccc(F)cc4)c(C(=O)NC[C@H]4CCCO4)nc3OC[C@@H]2C)[C@@H](CN2[C@H](C)COC[C@H]2C)CN1` [Compound 94, (S)-1-(2-((2R,5R)-2-(((3R,5R)-3,5-dimethylmorpholino)methyl)-5-methylpiperazin-1-yl)acetyl)-7-(4-fluorobenzyl)-2-methyl-N—(((R)-tetrahydrofuran-2-yl)methyl)-2,3-dihydro-1H-pyrido[2,3-b][1,4]oxazine-6-carboxamide], for which the half-inhibitory concentration (IC50) was found to be 0.16 nM in assay [1], 0.28 nM in assay [2] and 3.3 nM in assay [3].

`C[C@@H]1CN(CC(=O)N2c3cc(Cc4ccc(F)cc4)c(CO)nc3OC[C@@H]2C)[C@@H](CN2C[C@@H]3C[C@H]2CO3)CN1` [Example 85, 2-((2R,5R)-2-(((1S,4S)-2-oxa-5-azabicyclo[2.2.1]heptan-5-yl)methyl)-5-methylpiperazin-1-yl)-1-((S)-7-(4-fluorobenzyl)-6-(hydroxymethyl)-2-methyl-2,3-dihydro-1H-pyrido[2,3-b][1,4]oxazin-1-yl)ethan-1-one]: the IC50 in assay [1] was 0.68 nM; in assay [2], 0.72 nM; in assay [3] it was 20 nM.

For `C[C@@H]1CN(CC(=O)N2c3cc(Cc4ccc(F)cc4)c(C(=O)N4CC(O)C4)nc3OC[C@@H]2C)[C@@H](CN2[C@H](C)COC[C@H]2C)CN1` [Example 74, 2-((2R,5R)-2-(((3R,5R)-3,5-dimethylmorpholino)methyl)-5-methylpiperazin-1-yl)-1-((S)-7-(4-fluorobenzyl)-6-(3-hydroxyazetidine-1-carbonyl)-2-methyl-2,3-dihydro-1H-pyrido[2,3-b][1,4]oxazin-1-yl)ethan-1-one], the half-inhibitory concentration (IC50) in assay [1] was determined as 0.25 nM; in assay [2], 0.51 nM; in assay [3], 11 nM.

Consider `C[C@@H]1CN(CC(=O)N2c3cc(Cc4ccc(F)cc4)c(C(=O)NC(C)(C)C)nc3OC[C@@H]2C)[C@@H](CN2[C@H](C)COC[C@H]2C)CN1` [Compound 120], for which the figures for the half-maximal inhibitory concentration (IC50) in assay [1], in assay [2] and in assay [3] were 0.24 nM, 0.39 nM and 6.8 nM, respectively.

As to `CC(C)C(=O)Nc1nc2c(cc1Cc1ccc(F)cc1)N(C(=O)CN1C[C@@H](C)NC[C@@H]1CN1[C@H](C)COC[C@H]1C)[C@@H](C)CO2` [Compound 118, N—((S)-1-(2-((2R,5R)-2-(((3R,5R)-3,5-dimethylmorpholino)methyl)-5-methylpiperazin-1-yl)acetyl)-7-(4-fluorobenzyl)-2-methyl-2,3-dihydro-1H-pyrido[2,3-b][1,4]oxazin-6-yl)isobutyramide], the IC50 came out at 0.16 nM in assay [1], 0.19 nM in assay [2] and 4.8 nM in assay [3].

`C[C@@H]1CN(CC(=O)N2c3cc(Cc4ccc(F)cc4)c(C(=O)NC[C@H]4CCOC4)nc3OC[C@@H]2C)[C@@H](CN2[C@H](C)COC[C@H]2C)CN1` [Compound 96, (S)-1-(2-((2R,5R)-2-(((3R,5R)-3,5-dimethylmorpholino)methyl)-5-methylpiperazin-1-yl)acetyl)-7-(4-fluorobenzyl)-2-methyl-N—(((R)-tetrahydrofuran-3-yl)methyl)-2,3-dihydro-1H-pyrido[2,3-b][1,4]oxazine-6-carboxamide]: the IC50 in assay [1] was 0.21 nM; in assay [2] it was 0.23 nM; in assay [3], 3.75 nM.

On to `COCCOc1nc2c(cc1Cc1ccc(F)cc1)N(C(=O)CN1C[C@@H](C)NC[C@@H]1CN1[C@H](C)COC[C@H]1C)[C@@H](C)CO2` [Compound 89, 2-((2R,5R)-2-(((3R,5R)-3,5-dimethylmorpholino)methyl)-5-methylpiperazin-1-yl)-1-((S)-7-(4-fluorobenzyl)-6-(2-methoxyethoxy)-2-methyl-2,3-dihydro-1H-pyrido[2,3-b][1,4]oxazin-1-yl)ethan-1-one], for which the IC50 was found to be 0.17 nM in assay [1], 0.36 nM in assay [2] and 3.1 nM in assay [3].

For `COC[C@@H]1COCCN1C[C@H]1CN[C@H](C)CN1CC(=O)N1c2cc(Cc3ccc(F)cc3)c(CO)nc2OC[C@@H]1C` [Compound 52, 1-((S)-7-(4-fluorobenzyl)-6-(hydroxymethyl)-2-methyl-2,3-dihydro-1H-pyrido[2,3-b][1,4]oxazin-1-yl)-2-((2R,5R)-2-(((R)-3-(methoxymethyl)morpholino)methyl)-5-methylpiperazin-1-yl)ethan-1-one], the IC50 turned out to be 0.55 nM in assay [1], 1.1 nM in assay [2] and 13 nM in assay [3].

Turning to `C[C@@H]1CN(CC(=O)N2c3cc(Cc4ccc(F)cc4)c(C(=O)N4CCCCC4)nc3OC[C@@H]2C)[C@@H](CN2[C@H](C)COC[C@H]2C)CN1` [Compound 102, 2-((2R,5R)-2-(((3R,5R)-3,5-dimethylmorpholino)methyl)-5-methylpiperazin-1-yl)-1-((S)-7-(4-fluorobenzyl)-2-methyl-6-(piperidine-1-carbonyl)-2,3-dihydro-1H-pyrido[2,3-b][1,4]oxazin-1-yl)ethan-1-one], the 50% inhibitory concentration (IC50) in assay [1] was 0.24 nM; in assay [2] it was 0.49 nM; in assay [3], 5.7 nM.

For the compound `C[C@@H]1CN(CC(=O)N2c3cc(Cc4ccc(F)cc4)c(OCCN4CCOCC4)nc3OC[C@@H]2C)[C@@H](CN2[C@H](C)COC[C@H]2C)CN1` [Compound 90], the IC50 stood at 0.22 nM in assay [1], 0.34 nM in assay [2] and 3.8 nM in assay [3].

For the compound `C[C@@H]1CN(CC(=O)N2c3cc(Cc4ccc(F)cc4)cnc3OC[C@@H]2C2CCCCC2)[C@@H](CN2CCOC[C@H]2C)CN1` [Compound 42, 1-((S)-2-cyclohexyl-7-(4-fluorobenzyl)-2,3-dihydro-1H-pyrido[2,3-b][1,4]oxazin-1-yl)-2-((2R,5R)-5-methyl-2-(((R)-3-methylmorpholino)methyl)piperazin-1-yl)ethan-1-one], the IC50 amounted to 0.34 nM in assay [1], 0.52 nM in assay [2] and 25 nM in assay [3].
